Results: US20250059139A1, “COMPOUNDS FOR TREATMENT OF CANCER” (THE JOHNS HOPKINS UNIVERSITY, priority 2021, published 2025)

Columns and labels:
[1] = test system: human prostate cancer cell lines; assay: In vitro growth of human prostate cancer cell lines; type: cell-based; details: CWR22Rv1, 3 of the 4 lines (FIGS. 48A-48C: BCap-1, LgCap-1, CWR-22Rv1)
Excerpt: Prostate Cancer Models. The source, history, and characteristics of the human prostate cancer cell lines and PDXs used, as well as cell culture conditions for their in vitro maintenance and the in vivo protocol for xenograft growth in triple immune-deficient NSG (i.e. NOD.Cg-PrkdcScidIl2rgtmlWji/Szj), adult (>8 week old) male mice obtained from the Sidney Kimmel Comprehensive Cancer Center (SKCCC) Animal Core Facility are described previously (Isaacs 2013; Brennen et al. JCI Insight. 2021, 6(8):e146827; Zhu et al. Oncogene 2020, 39(45): 6935-6949). […] In vitro growth curves were determined as described (Isaacs 2013). In vivo growth response to oral daily TasQ (10 mg/kg/d) of TRAMP-C2 mouse prostate cancers was evaluated in C57BL/6J syngeneic wild type vs. NOX-2 vs. iNOS null male mice obtained from Jackson Laboratory (Bar Harbor, ME). Growth response to oral daily TasQ (10 mg/kg/d) of TRAMP-C2 and B6CaP mouse prostate cancers was also evaluated in S100A9 null C57BL′6J male mice obtained from Dmitry Gabrilovich (Wistar Institute). […] In vitro growth curves were determined as described (Isaacs 2013). Growth response to daily oral TasQ vs. ESATA-20 (both at 10 mg/kg/d) of Myc-CaP-CR mouse prostate cancer was evaluated in syngeneic FVB/NJ castrate male mice from Jackson Laboratory. […]

mCRPC patients = details: cited from earlier work
[2] = molecular target: T1, fl-R681A/R798A double mutant HDAC4 / fl-NCoR1 (Homo sapiens, UniProt P56524, R681A/R798A); assay: SPR inhibition of fl-R681A/R798A double mutant HDAC4 binding to fl-NCoR1; details: plateau at 2 μM TasQ
T1 construct: Full-length (fl) [A.A. 1-1082] recombinant human histone deacetylase 4 (rhHDAC4) protein; FLAG (N); GST (given as 'with or without'); host or cells: HEK293-T (HDAC4)
T1 sequence (P56524 whole entry R681A/R798A): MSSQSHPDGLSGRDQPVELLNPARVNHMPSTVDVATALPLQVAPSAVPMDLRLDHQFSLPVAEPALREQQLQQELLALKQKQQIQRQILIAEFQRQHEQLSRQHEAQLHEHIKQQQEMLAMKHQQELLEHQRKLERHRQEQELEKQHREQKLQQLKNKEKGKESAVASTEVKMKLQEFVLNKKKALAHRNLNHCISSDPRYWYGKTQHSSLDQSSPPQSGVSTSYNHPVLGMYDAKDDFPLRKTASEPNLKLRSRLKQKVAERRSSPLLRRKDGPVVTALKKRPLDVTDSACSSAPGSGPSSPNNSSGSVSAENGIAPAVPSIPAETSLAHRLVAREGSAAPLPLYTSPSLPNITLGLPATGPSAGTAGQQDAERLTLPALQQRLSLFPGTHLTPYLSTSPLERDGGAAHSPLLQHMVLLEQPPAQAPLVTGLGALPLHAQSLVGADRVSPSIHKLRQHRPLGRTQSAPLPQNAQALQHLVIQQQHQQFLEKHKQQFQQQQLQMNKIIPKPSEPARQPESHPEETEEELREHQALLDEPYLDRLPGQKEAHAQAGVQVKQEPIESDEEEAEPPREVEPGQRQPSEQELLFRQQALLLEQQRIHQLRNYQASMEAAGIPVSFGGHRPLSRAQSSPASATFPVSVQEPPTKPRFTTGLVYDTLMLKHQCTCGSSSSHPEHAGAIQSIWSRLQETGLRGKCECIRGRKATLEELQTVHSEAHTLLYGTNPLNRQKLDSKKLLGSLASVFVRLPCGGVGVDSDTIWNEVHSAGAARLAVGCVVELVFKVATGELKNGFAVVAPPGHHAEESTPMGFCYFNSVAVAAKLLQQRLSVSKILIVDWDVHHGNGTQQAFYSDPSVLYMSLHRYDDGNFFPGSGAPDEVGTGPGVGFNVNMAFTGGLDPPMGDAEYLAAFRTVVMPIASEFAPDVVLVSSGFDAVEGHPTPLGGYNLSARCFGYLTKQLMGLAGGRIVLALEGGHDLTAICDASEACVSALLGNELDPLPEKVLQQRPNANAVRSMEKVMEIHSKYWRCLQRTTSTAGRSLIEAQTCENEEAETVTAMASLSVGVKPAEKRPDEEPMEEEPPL
Procedure: Surface Plasmon Resonance (SPR) Binding Analysis. SPR analysis was performed on the Biacore 3000™ system using CM5 sensor chips, certified buffers (HBS-P—10 mM HEPES, 0.15 M NaCl, pH 7.4, containing 0.005% v/v Surfactant P; HBS-EP-HBS-P with 3 mM EDTA) and reagents for immobilization and surface regeneration from Biacore, GE Healthcare, Uppsala Sweden. Evaluation of sensorgrams was performed using the BIA-evaluation Software version 4.1 and GraphPad Prism 4. Buffer of protein reagents were changed to HBS-P on Zeba spin desalting columns (Thermo Scientific) prior to being used in SPR analysis (Isaacs 2013).
C. Inhibition of HDAC4-NCoR1 interaction by TasQ. The interaction between HDAC4 and NCoR1 was studied either by injecting NCoR over immobilized HDAC4 or with an alternative orientation where HDAC4 was passed over a surface with covalently coupled NCoR1. Whether TasQ can inhibit the formation of the functional HDAC4-NCoR1 complex was tested by pre-incubation with NCoR1 or HDAC4.
These additional analyses again documented high-affinity binding of the wild-type fl-HDAC4 protein to fl-NCoR1 with such binding being competed by pre-incubation with TasQ in solution (FIG. 21).

S100A9 = S100A9 (Homo sapiens, UniProt P06702); details: Kallberg et al. 2012; cited from earlier work
S100A9, sequence (P06702 whole entry, species assumed): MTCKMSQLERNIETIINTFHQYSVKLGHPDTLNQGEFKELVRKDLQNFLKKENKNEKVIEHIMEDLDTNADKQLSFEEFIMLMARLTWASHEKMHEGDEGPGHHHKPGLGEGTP

Structure (SMILES): COc1cccc2c1c(O)c(C(=O)N(c1ccc(C(F)(F)F)cc1)C1CCCCC1)c(=O)n2C [ESATA-20]
- IC50 [1]: < 10 µM

Structure (SMILES): COc1cccc2c1c(O)c(C(=O)N(C)c1ccc(C(F)(F)F)cc1)c(=O)n2C [TasQ, Tasquinimod]
- reduction of the risk of radiographic progression or death vs. placebo (mCRPC patients; Phase III, oral 1 mg/day, mCRPC patients on ADT): 36%
- overall survival (mCRPC patients; Phase III, oral 1 mg/day): not enhanced
- Cmax (mCRPC patients; human, in vivo, 1 mg): ~500 nM
- maximum tolerated dose (MTD) in humans (mCRPC patients; human, in vivo): 1 mg
- inhibition at 2 µM [2]: < 35%
- affinity to S100A9 (S100A9): nanomolar (nM) affinity
